The source of these data is patent US10946071B2 (MediciNova, Inc., priority 2018, dated 2021).

The conditions of data set [1]: Sanftner et al., Xenobiotica 2009; cited from earlier work.
For data set [2], the system named is subjects with primary or secondary progressive multiple sclerosis. Nature of the data set: Phase 2 randomized, double-blind, placebo-controlled 96 week study: progression of disability (EDSS), Cox proportional-hazards regression. In kind it is in vivo, human. The settings on record: for Risk of Confirmed Disability Progression: Cox Hazard Ratio (ibudilast vs. placebo): ibudilast 100 mg/d, 90% CI. As for the experimental part: A total of 255 male and female subjects from 21 to 65 years old, inclusive, were enrolled into one of two treatment arms (ibudilast 100 mg/d or matching-placebo). […] During the study, subjects were allowed to change medications from one injectable to the other. […] Inhaled and topical steroids are allowed. If a relapse episode occured, a single course of systemic corticosteroids was permitted, as prescribed by the treating neurologist. Subjects returned to the clinic for follow-up visits on a regular basis at Week 4, 8, 12, 24, 36, 48, 60, 72, 84 and 96.
The double-blind Treatment Phase consisted of a Baseline visit followed by 10 scheduled clinic visits. The Baseline Visit had to have occured within 45 days following the Screening Visit. At the Baseline Visit (Day 1), subjects who completed all of the screening assessments and continued to meet eligibility criteria were randomized to one of two treatment groups (ibudilast 100 mg/d or placebo) in a 1:1 ratio.
Subjects took their first dose of study medication (30 mg ibudilast or placebo) on the evening of the Baseline Visit (Day 1). On the morning of Day 2, all subjects begun a 3 capsule BID dosing regimen through Day 14. Subjects randomized to ibudilast started at 60 mg/d (30 mg BID) on Day 2 and remained on 60 mg/d through Day 14. Beginning on Day 15, all subjects increased dosing to 5 capsules BID regimen; those randomized to the ibudilast treatment arm were taking 100 mg/d.
After Day 15, subjects with intolerable side-effects (e.g., nausea, diarrhea, vertigo) were allowed to reduced their dose to either 4 capsules twice a day (80 mg/d for those taking ibudilast) or 3 capsules twice a day (60 mg/d for those taking ibudilast). Subjects with intolerable side-effects (e.g., nausea, diarrhea, vertigo) at the end of Day 14 were allowed to continue taking 3 capsules twice a day at the Investigator's discretion. At the Investigator's discretion, the daily dose of ibudilast were potentially adjusted between 3 capsules twice a day, 4 capsules twice a day, and 5 capsules twice a day over the first 8 weeks of treatment. At the Investigator's discretion, the daily dose of ibudilast could have been divided and taken three times per day if needed to improve tolerability. […] The dosing interval was either twice a day or 3 times per day, at the Investigator's discretion. The dosing interval could also be changed to between twice and three times per day over the course of the entire study, at the Investigator's discretion.
Progression of disability was measured according to the score on the Expanded Disability Status Scale (EDSS; range, 0 to 10 in 0.5-point increments, with higher scores indicating more disability) with the use of Cox proportional-hazards regression. Confirmed disability progression was defined as an increase in the EDSS score of at least 1.0 point from baseline (or an increase of ≥0.5 points for patients with a baseline EDSS score of >5.0) that was sustained for at least 20 weeks.

`CC(C)C(=O)c1c(C(C)C)nn2ccccc12` [ibudilast, 3-isobutyryl-2-isopropylpyrazolo[1,5-a]pyridine]: in data set [1], the CNS penetration result is given as “good CNS penetration”. Also, the “hazard ratio for 20-week confirmed disability progression (as measured by the EDSS score) with ibudilast as compared with placebo” value in data set [2] (all subjects, ibudilast 100 mg/d oral vs placebo, 96 weeks, 95% CI) is on record as 0.74. Besides, the “probability of no progression at week 72” value in data set [2] (subgroup receiving interferon-beta, ibudilast arm (placebo arm 0.804)) is on record as 0.952. Further, the “proportion of subjects with disability progression at week 96 (not confirmed progression): ibudilast vs. placebo risk difference” value in data set [2] (subgroup receiving interferon-beta, week 96, 90% CI: −0.499 to −0.068) is reported as −0.283. Also, the figures for the “time to confirmed disability progression, ibudilast compared with placebo (in words)” value in data set [2] (subgroup taking GA as concomitant medication) and in data set [2] (the other two subgroups (concomitant interferon-beta; no concomitant medication)) were “the placebo arm was superior to ibudilast” and “ibudilast was better than placebo”, respectively. The “Risk of Confirmed Disability Progression: Cox Hazard Ratio (ibudilast vs. placebo)” value in data set [2] (subgroup: concomitant medication taking GA (glatiramer acetate)) is on record as 1.229; in data set [2] (subgroup: concomitant medication taking Interferon-Beta), 0.238; in data set [2] (subgroup: no concomitant glatiramer acetate or interferon-beta), 0.672.
